The source made the active and inactive calls. The rule behind the calls is not given here.
Experiments:
PC-9 [1] = assay: Induction of apoptosis in human PC-9 cells expressing EGFR L858R/T790M/C797S mutant assessed as late apoptotic cells at 1 uM incubated for 48 hrs by Annexin V-FITC/PI staining based flow cytometric analysis (reference value: 0.360 %); type: functional
PC-9 [2] = assay: Induction of apoptosis in human PC-9 cells expressing EGFR Del19/T790M/C797S mutant assessed as late apoptotic cells at 1 uM incubated for 48 hrs by Annexin V-FITC/PI staining based flow cytometric analysis (reference value: 0.040 %); type: functional
PC-9 [3] = assay: Induction of apoptosis in human PC-9 cells expressing EGFR L858R/T790M/C797S mutant assessed as early apoptotic cells at 0.5 uM incubated for 48 hrs by Annexin V-FITC/PI staining based flow cytometric analysis (reference value: 0.210 %); type: functional
PC-9 [4] = assay: Induction of apoptosis in human PC-9 cells expressing EGFR L858R/T790M/C797S mutant assessed as necrotic cells at 1 uM incubated for 48 hrs by Annexin V-FITC/PI staining based flow cytometric analysis (reference value: 0.540 %); type: functional
PC-9 [5] = assay: Induction of apoptosis in human PC-9 cells expressing EGFR Del19/T790M/C797S mutant assessed as necrotic cells at 1 uM incubated for 48 hrs by Annexin V-FITC/PI staining based flow cytometric analysis (reference value: 0.090 %); type: functional
[6] = Metabolic stability in rabbit liver microsomes assessed as half-life at 10 uM preincubated for 5 mins followed by NADPH addition and measured upto 60 mins by HPLC analysis; type: ADME, Oryctolagus cuniculus, Microsome; conditions: time < 65 min
PC-9 [7] = assay: Induction of apoptosis in human PC-9 cells expressing EGFR L858R/T790M/C797S mutant assessed as late apoptotic cells at 0.5 uM incubated for 48 hrs by Annexin V-FITC/PI staining based flow cytometric analysis (reference value: 0.360 %); type: functional
PC-9 [8] = assay: Induction of apoptosis in human PC-9 cells expressing EGFR Del19/T790M/C797S mutant assessed as viable cells at 0.1 uM incubated for 48 hrs by Annexin V-FITC/PI staining based flow cytometric analysis (reference value: 99.8 %); type: functional; conditions: read-out: Activity
[9] = Metabolic stability in Sprague-Dawley rat liver microsomes assessed as intrinsic clearance at 10 uM preincubated for 5 mins followed by NADPH addition and measured upto 60 mins by HPLC analysis; type: ADME, Microsome; conditions: time < 65 min, read-out: CLH
[10] = Metabolic stability in human liver microsomes assessed as half-life at 10 uM preincubated for 5 mins followed by NADPH addition and measured upto 60 mins by HPLC analysis; type: ADME, Microsome; conditions: time < 65 min
PC-9 [11] = assay: Induction of apoptosis in human PC-9 cells expressing EGFR Del19/T790M/C797S mutant assessed as early apoptotic cells at 1 uM incubated for 48 hrs by Annexin V-FITC/PI staining based flow cytometric analysis (reference value: 0.050 %); type: functional
PC-9 [12] = assay: Induction of apoptosis in human PC-9 cells expressing EGFR Del19/T790M/C797S mutant assessed as viable cells at 1 uM incubated for 48 hrs by Annexin V-FITC/PI staining based flow cytometric analysis (reference value: 99.8 %); type: functional; conditions: Homo sapiens, PC-9, read-out: Activity
PC-9 [13] = assay: Antitumor activity against human PC-9 cells expressing EGFR L858R/T790M/C797S mutant xenografted in BALB/c nude mouse assessed as tumor growth inhibition at 10 mg/kg, po administered for 18 days relative to control; type: functional; conditions: PC-9, 432 h, time 18 day, read-out: TGI
[14] = Metabolic stability in rabbit liver microsomes assessed as intrinsic clearance at 10 uM preincubated for 5 mins followed by NADPH addition and measured upto 60 mins by HPLC analysis; type: ADME, Oryctolagus cuniculus, Microsome; conditions: time < 65 min, read-out: CLH
HCC827 = assay: cells; conditions: Homo sapiens, HCC827, 72 h
Description: Cytotoxicity against human HCC827 cells expressing EGFR Del19 mutant assessed as inhibition of cell proliferation incubated for 72 hrs by CCK8 assay

PC-9 [15] = assay: cells; conditions: Homo sapiens, PC-9, 72 h
Description: Cytotoxicity against human PC-9 cells expressing EGFR L858R/T790M/C797S mutant assessed as inhibition of cell proliferation incubated for 72 hrs by CCK8 assay

PC-9 [16] = assay: Induction of apoptosis in human PC-9 cells expressing EGFR Del19/T790M/C797S mutant assessed as necrotic cells at 0.5 uM incubated for 48 hrs by Annexin V-FITC/PI staining based flow cytometric analysis (reference value: 0.090 %); type: functional
PC-9 [17] = assay: Induction of cell cycle arrest in human PC-9 cells expressing EGFR Del19/T790M/C797S mutant assessed as accumulation of cells at G2/M phase at 1 uM incubated for 24 hrs by PI staining based flow cytometric analysis; type: functional
PC-9 [18] = assay: cells; conditions: Homo sapiens, PC-9, 72 h; remark: listed apart in the source
Description: Cytotoxicity against human PC-9 cells expressing EGFR Del19 mutant assessed as inhibition of cell proliferation incubated for 72 hrs by CCK8 assay

PC-9 [19] = assay: Induction of cell cycle arrest in human PC-9 cells expressing EGFR Del19/T790M/C797S mutant assessed as S phase cells at 0.1 to 1 uM incubated for 24 hrs by PI staining based flow cytometric analysis (reference value: 32.4 +/- 1.1 %); type: functional; conditions: dose 0.1-1 µM
PC-9 [20] = assay: Induction of apoptosis in human PC-9 cells expressing EGFR L858R/T790M/C797S mutant assessed as necrotic cells at 0.5 uM incubated for 48 hrs by Annexin V-FITC/PI staining based flow cytometric analysis (reference value: 0.540 %); type: functional
PC-9 [21] = assay: Induction of apoptosis in human PC-9 cells expressing EGFR Del19/T790M/C797S mutant assessed as necrotic cells at 0.1 uM incubated for 48 hrs by Annexin V-FITC/PI staining based flow cytometric analysis (reference value: 0.090 %); type: functional
PC-9 [22] = assay: Induction of cell cycle arrest in human PC-9 cells expressing EGFR L858R/T790M/C797S mutant assessed as S phase cells at 0.1 to 1 uM incubated for 24 hrs by PI staining based flow cytometric analysis (reference value: 34.5 +/- 3.3 %); type: functional; conditions: dose 0.1-1 µM
MCF7 = assay: cells; conditions: Homo sapiens, MCF7, 72 h
Description: Cytotoxicity against human MCF7 cells assessed as inhibition of cell proliferation incubated for 72 hrs by CCK8 assay

PC-9 [23] = assay: Induction of apoptosis in human PC-9 cells expressing EGFR L858R/T790M/C797S mutant assessed as early apoptotic cells at 1 uM incubated for 48 hrs by Annexin V-FITC/PI staining based flow cytometric analysis (reference value: 0.210 %); type: functional
PC-9 [24] = assay: Induction of apoptosis in human PC-9 cells expressing EGFR Del19/T790M/C797S mutant assessed as late apoptotic cells at 0.5 uM incubated for 48 hrs by Annexin V-FITC/PI staining based flow cytometric analysis (reference value: 0.040 %); type: functional
PC-9 [25] = assay: Induction of apoptosis in human PC-9 cells expressing EGFR L858R/T790M/C797S mutant assessed as early apoptotic cells at 0.1 uM incubated for 48 hrs by Annexin V-FITC/PI staining based flow cytometric analysis (reference value: 0.210 %); type: functional
[26] = Toxicity in BALB/c nude mouse xenografted with human PC-9 cells expressing EGFR L858R/T790M/C797S mutant assessed as body weight loss at 10 to 40 mg/kg, po administered for 18 days; type: organism-based; conditions: in vivo, 432 h, dose 10-40 mg/kg, time 18 day

Compound: C=CC(=O)Nc1cc(Nc2ncc(F)c(-c3ccc4cc(C(=O)NC)n(C(C)C)c4c3)n2)ccc1N1CCN(C)CC1
- Activity (PC-9 [1]): 4.02%
- Activity (PC-9 [2]): 8.3%
- Activity (PC-9 [3]): 30.3%
- Activity (PC-9 [4]): 0.91%
- Activity (PC-9 [5]): 1.01%
- half-life at 10 µM [6]: 2.36 h
- Activity (PC-9 [7]): 6.77%
- viability at 0.1 µM (PC-9 [8]): 85.8%
- microsomal CLint at 10 µM [9]: 52 µL/min/mg
- half-life at 10 µM [10]: 3.85 h
- Activity (PC-9 [11]): 11.6%
- viability at 1 µM (PC-9 [12]): 79.1%
- inhibition in vivo at 10 mg/kg (PC-9 [13]): 48.7%
- microsomal CLint at 10 µM [14]: 32.7 µL/min/mg
- IC50 (HCC827): 108 nM
- IC50 (PC-9 [15]): 52 nM
- Activity (PC-9 [16]): 1.2%
- Activity (PC-9 [17]): Active
- IC50 (PC-9 [18]): 144 nM
- Activity (PC-9 [19]): 15.6%
- Activity (PC-9 [20]): 1.77%
- Activity (PC-9 [21]): 3.55%
- Activity (PC-9 [22]): 15.9%
- IC50 (MCF7): 3610 nM
- Activity (PC-9 [23]): 36.3%
- Activity (PC-9 [24]): 4.19%
- Activity (PC-9 [25]): 2.03%
- Activity [26]: Non-Toxic
